Laboratory results from paper PMC8744746 (International Journal of Molecular Sciences, 2021).
Where “and” joins values, the source holds several entries; their conditions need not be identical. Identical values can stand only once. Entries after “also recorded” stand apart in the source; their conditions may differ. Like-named read-outs stand apart in the source and are kept apart here.

Tests used:
[1] = system: RH-GFP parasites; format: cell-based, Toxoplasma gondii; details: drugs at their EC50 concentrations, clemastine +/− pretreatment
Protocol: The red-green invasion assay using GFP-expressing tachyzoites was adapted from the original protocol. HFF cells were grown to confluency on coverslips in 6-well dishes. RH-GFP parasites were harvested from infected host cells by syringe passage through a 27-gauge needle. Tachyzoites were allowed to adhere to host cells for 20 min at 37 °C in a high-potassium “Endo” buffer. The buffer was replaced with warm invasion medium (DMEM + various drug conditions). Parasite invasion occurred under control or drug-treated conditions for 3 min (short invasion time) or 30 min (long invasion time) at 37 °C in a humidified 5% CO2 incubator. After invasion, samples were washed with PBS, fixed with formyl saline without subsequent permeabilization, stained with mouse anti-SAG1 antibody (Invitrogen, Waltham, MA, USA: D61S, 1:1000), and detected with a goat anti-mouse secondary antibody conjugated to Alexa Fluor 594 (Invitrogen A11005, 1:1000). Extracellular, invading, and intracellular parasites were scored from 10 random microscope fields. Invasion was calculated by dividing the number of intracellular parasites by the total number of parasites counted.

[2] = system: HFF cell microtubules; assay: Tubulin immunofluorescence and SFEX quantification of vertebrate microtubules; format: cell-based, human; details: at or above the EC50 for oryzalin, clemastine, astemizole; versus vehicle control
Protocol: Vertebrate sensitivity is assessed using tubulin immunofluorescence to visualize microtubule networks after drug treatment of uninfected human HFF cells in culture (Figure 3A). To quantify microtubule polymer density between treatments, we used the SFEX program [19] to segment and enumerate filaments in a fixed-size region of interest. Treatment with the vertebrate microtubule-depolymerizing colchicine-site ligand combretastatin A4 [32] was used as a positive control to ensure that the SFEX parameters captured partial, as well as total, loss of cytoplasmic microtubules.
HFF cells were seeded subconfluently onto sterile 12-mm circular glass coverslips in 6-well dishes. Cells were grown to semiconfluency (3–4 days). Cultures were exposed to DMSO (vehicle control) and drugs of interest for 60 min at 37 °C. These samples were fixed and permeabilized with ice-cold methanol for 3–5 min and blocked in 10% BSA in Ca^2+, Mg^2+-free PBS at room temperature for 30 min or overnight at 4 °C. […] The open-source software Stress Fiber Extractor 1.0 [19] was used to quantify assembled tubulin (microtubules) present in HFF-cell immunofluorescence images within MATLAB R2015a, using the “Stress Fiber Network” analysis feature. […] Quantitative analysis of the segmented filaments was performed with the Stress Fiber Extractor, with export of data into Excel (Microsoft, Redmond, WA, USA). […]

[3] = system: Toxoplasma RH strain tachyzoites; details: read-out: EC50, Toxoplasma RH Strain; plaque area relative to control after 7 days in HFF monolayers
[4] = in vitro; details: human
Protocol: Because replicating cells may be more vulnerable than confluent monolayers, we evaluated survival of both subconfluent (dividing) and confluent (contact-inhibited) HFF cultures after 72 h of exposure to increasing drug concentrations (Supplemental Figure S4). […] Using this information, we calculated the in vitro therapeutic index for these drugs, which is the ratio of the CC50 to the EC50.
For subconfluent monolayers, approximately 5 × 10^4 HFF cells were plated into each well of a 24-well dish and exposed to D10+ media alone or D10+ with DMSO or drug for 3 days. The plates were processed with the In Vitro Toxicology Assay Kit, MTT based (Sigma Aldrich, TOX1), and A570 was measured in a SpectraMax I3X plate reader. Exported data were analyzed using Microsoft Excel. For confluent monolayers, approximately 5 × 10^4 HFF cells were plated into each well of a 24-well dish and grown in D10+ media alone. Once the cells were confluent, they were gently rinsed with PBS, and D10+ with DMSO or drug was added to each well. The plates were processed as above.

[5] = system: RH-GFP T. gondii; details: GFP-expressing parasites per vacuole, tracked up to 36 h
Description: To live image replicating parasites, we used a GFP-expressing Toxoplasma line [29] for invasion assays and replication assays. […] Next, we assessed the effects of the drugs on replication. By adding drug to infected cells after initiating parasite invasion, this assay measures replication independent of any effects on invasion. This methodology may also reveal details induced by drug treatment that are not resolved by the plaque assay, such as changes in parasite shape or acute replication delays. We enumerated the number of GFP-expressing parasites in individual vacuoles at 12-hour intervals over one complete lytic cycle.
HFF cells were grown to confluency in 35 mm coverslip dishes (MatTek, Ashland MA, USA). RH-GFP T. gondii [29] were harvested by filtering freshly lysed parasites. Parasites were diluted 4-fold in D10+ media. After 30 min of invasion at 37 °C, the cell monolayer was washed with PBS to remove extracellular parasites. D10+ media alone, D10+ with DMSO, or drug in DMSO was added to the dishes. Actively growing parasites in fibroblasts were imaged every 12 h over a 48-hour period using a Zeiss Axiovert 200 M and an Axiovision camera to collect 10 random fields of view for each condition. Parasite replication states were manually quantified and tallied to enumerate singlets, doublets, quadruplets, and larger rosettes.

[6] = system: Toxoplasma RH strain tachyzoites; assay: microbe, parasite or virus in culture; details: 168 h, read-out: EC50, Toxoplasma RH Strain, plaque area relative to control after 7 days in HFF monolayers
Protocol: To assess this, we gauged the therapeutic index by measuring compound EC50 for Toxoplasma tachyzoites grown in vertebrate host cells versus the CC50 for uninfected human foreskin fibroblast (HFF) cells. […] After 1 week of parasite growth, we visualized lytic destruction of crystal violet-stained host cells to reveal macroscopic plaques in the monolayer (Figure 2B). Greyscale images of individual wells were analyzed with the open-source program ImageJ [18] using the “threshold” functionality to differentiate between cells (dark gray) and plaques (white). The program calculates plaque number, average size, and percent total area within the field. The EC50 value is determined by graphing the relationship between compound concentrations and percent total plaque area relative to control cultures. […] HFF cells were grown to confluency in 6-well dishes and infected with 300 tachyzoites/well. Individual wells were treated with varying concentrations of drug, and the plates were left undisturbed for 7 days at 37 °C in a humidified 5% CO2 incubator. […] Greyscale photographic images of the plates were analyzed in ImageJ (NIH, Bethesda, MD, USA) using the “threshold” functionality. Plaque number, average size and percent total area were calculated by the program. […]

[7] = system: Toxoplasma tachyzoite subpellicular microtubules; assay: Subpellicular microtubule length in deoxycholate-extracted tachyzoites (ImageJ); format: cell-based, Toxoplasma gondii; details: drug-treated tachyzoites versus vehicle controls
Protocol: In parallel, we assessed the effect of these candidate tubulin-targeting agents on parasite microtubules, also via tubulin immunofluorescence. Because tachyzoite subpellicular microtubules are unusually resistant to detergent extraction due to the association of SPM1 and other stabilizing luminal proteins, these structures can be specifically isolated for analysis. Vehicle- and drug-treated parasites were incubated with deoxycholate, and the extracted subpellicular microtubule arrays were detected with tubulin immunofluorescence (Figure 4A). Images of parasite microtubules were measured using ImageJ.
To measure the length distribution of Toxoplasma tachyzoite subpellicular microtubules in control and treated parasites, we isolated subpellicular microtubule complexes by deoxycholate extraction of freshly lysed tachyzoites. Briefly, RH parasites were treated with DMSO or candidate drugs in culture for 2 days. Following lysis of host cells, extracellular parasites were centrifuged at 1000× g for 20 min at 4 °C and then resuspended in 1 mL of PBS. Parasites were settled onto poly-l-lysine (Sigma)-coated coverslips for 15 min at room temperature. Coverslips were incubated with 10 mg/mL deoxycholate (DOC) in phosphate-buffered saline (PBS) for 10 min to extract the subpellicular microtubule cytoskeleton. Samples were fixed in 3.7% formyl saline (Sigma) at room temperature for 10–15 min, followed by immunostaining for tubulin, as described above. Extracted subpellicular microtubules in immunofluorescence images were measured using ImageJ.

[8] = system: α-tubulin in T. gondii tachyzoites; assay: Immunoblot quantification of α-tubulin protein in tachyzoites; format: cell-based, Toxoplasma gondii; details: clemastine-treated tachyzoites (8 μM in Figure 4D); DMSO control 0.022
Description: Parasite equivalents and known concentrations of porcine tubulin standards were resolved by SDS-PAGE for subsequent immunoblot analysis using a broadly cross-reacting α-tubulin monoclonal antibody that recognizes both vertebrate and Toxoplasma tubulin. Band intensity was quantified with ImageJ, and the porcine samples were used to create a standard curve to determine α-tubulin concentration in Toxoplasma samples normalized to parasite equivalents.
The samples were resolved on a 10% SDS-polyacrylamide gel (Bio-Rad) and blotted to nitrocellulose for immunoblot analysis. Blots were probed with a mouse anti-α-tubulin antibody (Sigma T9026; 1:5000) and detected with an IgG anti-mouse secondary antibody conjugated to HRP (Promega, Madison, WI, USA: W4021, 1:10,000). Samples were imaged using a Nikon D700 fitted with a 55 mm f/1.4 Nikkor auto-focus lens and intervening 12 mm Kenko auto-focus extension tube [46]. Exposure times were controlled with a Satechi TRC-B remote shutter control. Band intensity was quantified using ImageJ.

[9] = system: Toxoplasma; design: method as in PMID 28609444; details: cited from earlier work

| Compound | Effect on tachyzoite invasion [1] | Effect on vertebrate (HFF) microtubules, in words [2] | Effect on tachyzoite replication [5] | Effect on Toxoplasma subpellicular microtubule length, in words [7] | also measured |
| --- | --- | --- | --- | --- | --- |
| COc1ccc(CCN2CCC(Nc3nc4ccccc4n3Cc3ccc(F)cc3)CC2)cc1 [Astemizole] | does not affect invasion | do not significantly differ from the vehicle control | No delays in replication are detected at 36 hours; also recorded: did not detect overt slowing of replication | smaller but significant decreases in filament length; also recorded: small but significant decrease in microtubule length | EC50 [3]: 2.07 µM; CC50 at 72 h ([4]; HFF CC50 confluent): 18 µM; CC50 at 72 h ([4]; HFF CC50 subconfluent): 8.83 µM; EC50 [6]: ~2 µM |
| CN1CCC[C@@H]1CCO[C@](C)(c1ccccc1)c1ccc(Cl)cc1 [Clemastine] | does not affect invasion |  | No delays in replication are detected at 36 hours; also recorded: did not detect overt slowing of replication |  | α-tubulin (pg)/tachyzoite [8]: 0.02 pg/tachyzoite and ~ 0.02 pg/tachyzoite |
| COc1ccc(/C=C\c2cc(OC)c(OC)c(OC)c2)cc1O [Combretastatin A4, combretastatin A4] |  | dose-dependent microtubule disassembly |  |  |  |
| CCc1nc(N)nc(N)c1-c1ccc(Cl)cc1 [Pyrimethamine] |  |  |  | does not reduce microtubule length | Effect on Toxoplasma subpellicular microtubule length, in words ([7]; listed as pyrimethamine): not different to that of the vehicle controls |
| OCCOCCN1CCN(C(c2ccccc2)c2ccc(Cl)cc2)CC1 (stereo not shown) [hydroxyzine] |  |  |  |  | EC50 [9]: 1 µM |
| Parabulin |  |  |  | significant reduction in microtubule length; also recorded: significant microtubule shortening relative to control samples |  |
